Measurements as given in US7183383B2, “Uses of collagen IV” (The University of Arkansas for Medical Sciences, priority 2002, dated 2007).

Assays:
[1] = 37° C.; cited from earlier work
[2] = system: collagen IV deposition in renal proximal tubular cells; test: Newly deposited collagen IV (immunoprecipitation, autoradiography, densitometry); type: cell-based, rabbit
Method: Immunoprecipitation of newly synthesized and deposited collagen IV was performed using the method of Niki et al., with some modifications (34). On days 1, 4, and 6 after sublethal S-(1,2-dichlorovinyl)-L-cysteine injury, renal proximal tubular cells were metabolically labeled for 24 hours with 25 μCi/ml of [^35S]-L-methionine. Cell monolayers were washed with PBS, solubilized for 30 minutes in lysis buffer (20 mM Tris-HCl (pH 8.8), 2 mM EDTA, 0.2 mM PMSF, 10 mM N-ethylmaleimide, 1% Triton X-100, 1% sodium deoxycholic acid, 150 mM NaCl, and 1 mM EGTA) containing protease inhibitors (25 μg/ml pepstatin A, 12.5 μg/ml leupeptin, 12.5 μg/ml aprotinin), and centrifuged at 15,000×g for 10 minutes at 4° C. The resulting supernatants (soluble fraction, cell-associated collagen) were transferred to fresh tubes, snap frozen in liquid N2, and stored at −80° C. Pelleted material (insoluble fraction, ECM-associated collagen) was resuspended in pellet solubilization buffer (20 mM Tris-HCl (pH 8.8), 2 mM EDTA, 0.2 mM PMSF, 10 mM N-ethylmaleimide, 1% sodium dodecyl sulfate, and 10 mM dithiothreitol), sonicated, boiled for 5 minutes, and incubated in the presence of iodoacetamide (25 mM) for 30 minutes at 37° C. with shaking. Samples were centrifuged at 15,000×g for 10 minutes at 4° C. Supernatants were then transferred to fresh microcentrifuge tubes, snap frozen in liquid N2, and stored at −80° C. Protein concentration in cell-associated and ECM-associated fractions was determined using a Coomassie protein microassay (Pierce, Rockford, Ill.) with BSA as the standard. Sample aliquots equaling 0.5 mg of total protein were diluted 3-fold in immunoprecipitation buffer (20 mM Tris-HCl (pH 8.8), 2 mM EDTA, 0.2 mM PMSF, 10 mM N-ethylmaleimide) and precleared with 20 μl (50% slurry) of Protein G-agarose beads for 2 hours. Samples were then incubated overnight with 0.05 mg of an anti-collagen IV monoclonal antibody (clone M3F7) at 4° C. with vigorous shaking. Samples were incubated for 2 hours at 4° C. with shaking in the presence of goat anti-mouse IgG at a concentration in two-fold excess of that of the primary antibody. Immune complexes were precipitated for 2 hours at 4° C. with shaking using 40 μl (50% slurry) of Protein G-agarose beads.
To collect the collagen IV immune complexes, samples were centrifuged at 15,000×g for 1 minute at 4° C. […]
(§1) Radiolabeled collagen IV was separated by SDS-PAGE and visualized by autoradiography (22). […] After film development, densitometry of the resulting 206 kDa bands was calculated using NIH Image software.

[3] = system: collagen IV synthesis in renal proximal tubular cells; test: Newly synthesized collagen IV (immunoprecipitation, autoradiography, densitometry); type: cell-based, rabbit
Method: Immunoprecipitation of newly synthesized and deposited collagen IV was performed using the method of Niki et al., with some modifications (34). On days 1, 4, and 6 after sublethal S-(1,2-dichlorovinyl)-L-cysteine injury, renal proximal tubular cells were metabolically labeled for 24 hours with 25 μCi/ml of [^35S]-L-methionine. Cell monolayers were washed with PBS, solubilized for 30 minutes in lysis buffer (20 mM Tris-HCl (pH 8.8), 2 mM EDTA, 0.2 mM PMSF, 10 mM N-ethylmaleimide, 1% Triton X-100, 1% sodium deoxycholic acid, 150 mM NaCl, and 1 mM EGTA) containing protease inhibitors (25 μg/ml pepstatin A, 12.5 μg/ml leupeptin, 12.5 μg/ml aprotinin), and centrifuged at 15,000×g for 10 minutes at 4° C. The resulting supernatants (soluble fraction, cell-associated collagen) were transferred to fresh tubes, snap frozen in liquid N2, and stored at −80° C. […] Protein concentration in cell-associated and ECM-associated fractions was determined using a Coomassie protein microassay (Pierce, Rockford, Ill.) with BSA as the standard. […]
as §1

Structure (SMILES)	stable in culture media [1] [days]	collagen IV deposition in DCVC-injured RPTC ([2]; 500 μM AscP, throughout the experiment)	collagen IV deposition by uninjured RPTC, pharmacological vs physiological AscP ([2]; uninjured RPTC, not statistically significant)	collagen IV synthesis, 500 μM compared to 50 μM AscP ([3]; day 1, uninjured RPTC)	decrease in collagen IV deposition compared to controls ([2]; day 4 after DCVC, physiological AscP, not statistically significant)	collagen IV deposition ([2]; one day after DCVC, 50 μM AscP)	increase in collagen IV synthesis ([3]; one day after DCVC, both 50 μM and 500 μM AscP) [fold]
O=C1O[C@H]([C@@H](O)CO)C(O)=C1OP(=O)(O)O [L-ascorbic acid-2-phosphate, L-Ascorbic acid-2-phosphate]	≥ 7	maintained collagen IV deposition at levels equal to that of controls	numerical increase	decreased			
N[C@@H](CSC(Cl)=CCl)C(=O)O [S-(1,2-dichlorovinyl)-L-cysteine]					approximately 50%	significantly inhibited	1.8
